Experimental data from EP3623369A1, “NOVEL MORPHOLINYL AMINE COMPOUNDS FOR THE TREATMENT OF AUTOIMMUNE DISEASE” (F. Hoffmann-La Roche AG, priority 2018, dated 2020).
pIC50: −log10 of the molar value.

The compounds below were run against T1, hTLR7 (Homo sapiens, UniProt Q9NYK1) (assay: HEK293-Blue-hTLR-7 cells assay (SEAP reporter, R848 stimulation)). Conditions: HEK293-Blue-hTLR7 cells, R848, 20 hrs; 0.003 is the lowest tested concentration; read-out: HEK/hTLR7 IC50.
T1 sequence (Q9NYK1 27-1049): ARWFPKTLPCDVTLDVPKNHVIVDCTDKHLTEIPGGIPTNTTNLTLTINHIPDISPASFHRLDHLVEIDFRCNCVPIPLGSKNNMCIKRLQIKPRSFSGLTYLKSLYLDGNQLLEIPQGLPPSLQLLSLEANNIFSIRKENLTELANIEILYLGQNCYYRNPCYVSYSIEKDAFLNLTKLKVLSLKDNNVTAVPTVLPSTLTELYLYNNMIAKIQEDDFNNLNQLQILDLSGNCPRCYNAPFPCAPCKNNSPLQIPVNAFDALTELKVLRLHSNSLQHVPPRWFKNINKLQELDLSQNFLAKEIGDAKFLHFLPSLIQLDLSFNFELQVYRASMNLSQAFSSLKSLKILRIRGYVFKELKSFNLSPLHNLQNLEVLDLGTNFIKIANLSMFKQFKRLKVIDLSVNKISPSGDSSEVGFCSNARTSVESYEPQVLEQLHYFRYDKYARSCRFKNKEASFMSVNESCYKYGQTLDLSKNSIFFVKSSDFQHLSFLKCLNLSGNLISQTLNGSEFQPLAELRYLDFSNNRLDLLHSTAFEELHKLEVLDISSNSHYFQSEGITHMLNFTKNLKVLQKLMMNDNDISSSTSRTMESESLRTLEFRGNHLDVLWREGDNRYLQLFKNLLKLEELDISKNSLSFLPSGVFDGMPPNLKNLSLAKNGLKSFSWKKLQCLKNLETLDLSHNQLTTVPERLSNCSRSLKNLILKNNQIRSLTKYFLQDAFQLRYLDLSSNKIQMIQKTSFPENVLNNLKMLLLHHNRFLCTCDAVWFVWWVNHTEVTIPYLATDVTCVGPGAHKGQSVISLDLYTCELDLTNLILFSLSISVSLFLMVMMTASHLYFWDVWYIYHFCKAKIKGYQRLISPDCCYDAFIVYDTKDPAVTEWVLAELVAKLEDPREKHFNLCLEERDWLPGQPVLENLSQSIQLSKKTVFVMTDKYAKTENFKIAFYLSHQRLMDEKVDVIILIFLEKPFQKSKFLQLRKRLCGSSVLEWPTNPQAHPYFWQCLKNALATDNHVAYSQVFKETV
Format: cell-based
Protocol: The following tests were carried out in order to determine the activity of the compounds of formula (I) or (Ia) in HEK293-Blue-hTLR-7/8/9 cells assay.
HEK293-Blue-hTLR-7 cells assay:
A stable HEK293-Blue-hTLR-7 cell line was purchased from InvivoGen (Cat.#: hkb-htlr7, San Diego, California, USA). These cells were originally designed for studying the stimulation of human TLR7 by monitoring the activation of NF-κB. A SEAP (secreted embryonic alkaline phosphatase) reporter gene was placed under the control of the IFN-β minimal promoter fused to five NF-κB and AP-1-binding sites. The SEAP was induced by activating NF-κB and AP-1 via stimulating HEK-Blue hTLR7 cells with TLR7 ligands. Therefore the reporter expression was declined by TLR7 antagonist under the stimulation of a ligand, such as R848 (Resiquimod), for incubation of 20 hrs. The cell culture supernatant SEAP reporter activity was determined using QUANTI-Blue™ kit (Cat.#: rep-qb1, Invivogen, San Diego, Ca, USA) at a wavelength of 640 nm, a detection medium that turns purple or blue in the presence of alkaline phosphatase.
HEK293-Blue-hTLR7 cells were incubated at a density of 250,000∼450,000 cells/mL in a volume of 170 µL in a 96-well plate in Dulbecco's Modified Eagle's medium (DMEM) containing 4.5 g/L glucose, 50 U/mL penicillin, […], […], 2 mM L-glutamine, 10% (v/v) heat-inactivated fetal bovine serum with addition of 20 µL test compound in a serial dilution in the presence of final DMSO at 1% and 10 µL of 20uM R848 in above DMEM, perform incubation under 37 °C in a CO2 incubator for 20 hrs. Then 20 µL of the supernatant from each well was incubated with 180 µL Quanti-blue substrate solution at 37 °C for 2 hrs and the absorbance was read at 620∼655 nm using a spectrophotometer. The signalling pathway that TLR7 activation leads to downstream NF-κB activation has been widely accepted, and therefore similar reporter assay was modified for evaluating TLR7 antagonist.

pIC50	Compound
7.49	C[C@@H]1CN(c2ccc(C#N)c3ncccc23)C[C@H](CN2Cc3ccc(N4CC(N)C4)cc3C2)O1 [Example 77, 5-[(2S,6R)-2-[[5-(3-aminoazetidin-1-yl)isoindolin-2-yl]methyl]-6-methyl-morpholin-4-yl]quinoline-8-carbonitrile]
7.47	C[C@@H]1CN(c2ccc(C#N)c3ncccc23)C[C@H](CN2Cc3ccc(N4CCNC[C@H]4CO)cc3C2)O1 [Example 83, 5-[(2S,6R)-2-[[5-[(2S)-2-(hydroxymethyl)piperazin-1-yl]isoindolin-2-yl]methyl]-6-methyl-morpholin-4-yl]quinoline-8-carbonitrile]
7.92	C[C@@H]1CN(c2ccc(C#N)c3nccnc23)C[C@H](CNCc2ccc(N3CCNCC3)cc2)O1 [Example 84, 8-[(2R,6S)-2-methyl-6-[[(4-piperazin-1-ylphenyl)methylamino]methyl]morpholin-4-yl]quinoxaline-5-carbonitrile]
> 8.52	C[C@@H]1CN(c2ccc(C#N)c3nccnc23)C[C@H](CN2Cc3ccc(N4CCNCC4)cc3C2)O1 [Example 12, 8-[(2R,6S)-2-methyl-6-[(5-piperazin-1-ylisoindolin-2-yl)methyl]morpholin-4-yl]quinoxaline-5-carbonitrile]
8.52	C[C@@H]1CN(c2ccc(C#N)c3nccnc23)C[C@H](CN2CCc3cc(N4CCNCC4)ccc3C2)O1 [Example 13, 8-[(2R,6S)-2-methyl-6-[(6-piperazin-1-yl-3,4-dihydro-1H-isoquinolin-2-yl)methyl]morpholin-4-yl]quinoxaline-5-carbonitrile]
7.70	5-[(2S,6R)-2-[[5-[3-(hydroxymethyl)piperazin-1-yl]isoindolin-2-yl]methyl]-6-methyl-morpholin-4-yl]quinoline-8-carbonitrile [Example 85]
7.80	C[C@@H]1CN(c2ccc(C#N)c3nccnc23)C[C@H](CN2Cc3cc(N4CCNCC4)cnc3C2)O1 [Example 30, 8-[(2R,6S)-2-methyl-6-[(3-piperazin-1-yl-5,7-dihydropyrrolo[3,4-b]pyridin-6-yl)methyl]morpholin-4-yl]quinoxaline-5-carbonitrile]
7.48	C[C@@H]1CN(c2ccc(C#N)c3nccnc23)C[C@H](CN2Cc3ccc(N4CCN5CCCCC5C4)cc3C2)O1 (stereo partly drawn) [Example 40, 8-[(2S,6R)-2-[[5-(1,3,4,6,7,8,9,9a-octahydropyrido[1,2-a]pyrazin-2-yl)isoindolin-2-yl]methyl]-6-methyl-morpholin-4-yl]quinoxaline-5-carbonitrile]
6.26	C[C@@H]1CN(c2ccc(C#N)n3nccc23)C[C@H](CN2CCc3cnccc3C2)O1 [Example R1, 4-[(2S,6R)-2-(3,4-dihydro-1H-2,6-naphthyridin-2-ylmethyl)-6-methyl-morpholin-4-yl]pyrazolo[1,5-a]pyridine-7-carbonitrile, reference compound]
7.40	C[C@@H]1CN(c2ccc(C#N)c3ncccc23)C[C@H](CN2Cc3ccc(N4CCN[C@@H](C)C4)cc3C2)O1 [Example 64, 5-[(2R,6S)-2-methyl-6-[[5-[(3S)-3-methylpiperazin-1-yl]isoindolin-2-yl]methyl]morpholin-4-yl]quinoline-8-carbonitrile]

More lines, now with the values behind:

Compound	pIC50
C[C@@H]1CN(c2ccc(C#N)n3nccc23)C[C@H](CN2CCc3cc(N4CCN(C)CC4)ccc3C2)O1 [Example 15, 4-[(2R,6S)-2-methyl-6-[[6-(4-methylpiperazin-1-yl)-3,4-dihydro-1H-isoquinolin-2-yl]methyl]morpholin-4-yl]pyrazolo[1,5-a]pyridine-7-carbonitrile]	7.43
C[C@@H]1CN(c2ccc(C#N)c3nccnc23)C[C@H](CN2Cc3ccc(N4CC5COCC(C4)N5)cc3C2)O1 [Example 49, 8-[(2R,6S)-2-methyl-6-[[5-(3-oxa-7,9-diazabicyclo[3.3.1]nonan-7-yl)isoindolin-2-yl]methyl]morpholin-4-yl]quinoxaline-5-carbonitrile]	7.30
CC1CNCCN1c1ccc2c(c1)CN(C[C@H]1CN(c3ccc(C#N)c4ncccc34)C[C@@H](C)O1)C2 (stereo partly drawn) [Example 78, 5-[(2R,6S)-2-methyl-6-[[5-(2-methylpiperazin-1-yl)isoindolin-2-yl]methyl]morpholin-4-yl] quinoline-8-carbonitrile]	7.96
C[C@@H]1CN(c2ccc(C#N)c3ncccc23)C[C@H](CN2Cc3ccc(N4CC5CCC(C4)N5)cc3C2)O1 [Example 42, 5-[(2S,6R)-2-[[5-(3,8-diazabicyclo[3.2.1]octan-3-yl)isoindolin-2-yl]methyl]-6-methyl-morpholin-4-yl]quinoline-8-carbonitrile]	7.21
C[C@@H]1CN(c2ccc(C#N)c3ncccc23)C[C@H](CN2Cc3ccc(N4C5CNCC4COC5)cc3C2)O1 [Example 46, 5-[(2R,6S)-2-methyl-6-[[5-(3-oxa-7,9-diazabicyclo[3.3.1]nonan-9-yl)isoindolin-2-yl]methyl]morpholin-4-yl]quinoline-8-carbonitrile]	7.13
C[C@@H]1CN(c2ccc(C#N)c3ncccc23)C[C@H](CN2Cc3cnc(N4CCNCC4)nc3C2)O1 [Example 63, 5-[(2R,6S)-2-methyl-6-[(2-piperazin-1-yl-5,7-dihydropyrrolo[3,4-d]pyrimidin-6-yl)methyl]morpholin-4-yl]quinoline-8-carbonitrile]	7.89
CC1CN(c2ccc3c(c2)CN(C[C@H]2CN(c4ccc(C#N)c5nccnc45)C[C@@H](C)O2)C3)CCN1 (stereo partly drawn) [Example 36, 8-[(2R,6S)-2-methyl-6-[[5-(3-methylpiperazin-1-yl)isoindolin-2-yl]methyl]morpholin-4-yl]quinoxaline-5-carbonitrile]	8.00
C[C@@H]1CN(c2ccc(C#N)c3nccnc23)C[C@H](CN2Cc3ccc(N4CCNC5(CC5)C4)cc3C2)O1 [Example 38, 8-[(2S,6R)-2-[[5-(4,7-diazaspiro[2.5]octan-7-yl)isoindolin-2-yl]methyl]-6-methyl-morpholin-4-yl]quinoxaline-5-carbonitrile]	7.64
C[C@@H]1CN(c2ccc(C#N)c3ncccc23)C[C@H](CNCc2ccc(N3CCNCC3)cc2)O1 [Example 86, 5-[(2R,6S)-2-methyl-6-[[(4-piperazin-1-ylphenyl)methylamino]methyl]morpholin-4-yl] quinoline-8-carbonitrile]	7.82
C[C@@H]1CN(c2ccc(C#N)c3ncccc23)C[C@H](CN2Cc3cc(N4CCNCC4)cnc3C2)O1 [Example 20, 5-[(2R,6S)-2-methyl-6-[(3-piperazin-1-yl-5,7-dihydropyrrolo[3,4-b]pyridin-6-yl)methyl]morpholin-4-yl]quinoline-8-carbonitrile]	7.85
C[C@@H]1CN(c2ccc(C#N)c3ncccc23)C[C@H](CN2Cc3cc(N4CCN(C)CC4)cc(F)c3C2)O1 [Example 69, 5-[(2S,6R)-2-[[4-fluoro-6-(4-methylpiperazin-1-yl)isoindolin-2-yl]methyl]-6-methyl-morpholin-4-yl]quinoline-8-carbonitrile]	7.37
C[C@@H]1CN(c2ccc(C#N)c3nccnc23)C[C@H](CN2Cc3ccc(N4C5CCC4CNC5)cc3C2)O1 [Example 41, 8-[(2S,6R)-2-[[5-(3,8-diazabicyclo[3.2.1]octan-8-yl)isoindolin-2-yl]methyl]-6-methyl-morpholin-4-yl]quinoxaline-5-carbonitrile]	7.23
